Source: PubChem BioAssay AID1963965 (Molecular Pharmacology Branch, DTP, NCI, 2024)
Several values for one entry are separate records, joined by “and”; a condition that tells them apart may be missing. Equal values may be shown once.

Test system: 996289-038-R-J1-PDC spheroid viability
Test: Anticancer human tumor 996289-038-R-J1-PDC patient-derived colon adenocarcinoma cell line growth inhibition [PI3K]
Settings: spheroids with HUVEC and MSC; for viability, T/C: stronger effect = lower value
From the text: Combinatorial screen of targeted agents with the PI3K inhibitors inavolisib, alpelisib, duvelisib, and copanlisib in multi-cell type tumor spheroids
A high-throughput screen of multi-cell type tumor spheroids was designed to identify active combinations of targeted small molecules and PI3K pathway inhibitors. Complex spheroids include a stromal component modeled by human endothelial cells (HUVEC) and fibroblasts modeled by human mesenchymal stem cells (MSCs). The concentration ranges selected for each drug and investigational agent were based upon clinically achievable concentrations if the clinical Cmax of the agent was known.
Compounds. The drugs and investigational agents: inavolisib (NSC800729), alpelisib (NSC765974), duvelisib (NSC772469), copanlisib (NSC816437), ipatasertib (NSC767898), afuresertib (NSC778305), talazoparib (NSC767125), sapanisertib (NSC764658), selumetinib (NSC741078), tovorafenib (DAY101, NSC766906), vemurafenib (NSC761431), ravoxertinib (NSC781343), sotorasib (NSC818433), MRTX1133 (NSC 836407), abemaciclib (NSC 768073), palbociclib (NSC758247), venetoclax (NSC 766270), SY5609 (NSC837396), enzalutamide (NSC755605), and darolutamide (NSC825331), were obtained from the National Cancer Institute (NCI) Developmental Therapeutics Program Chemical Repository. The FDA-approved anticancer drug set is available from the NCI Developmental Therapeutics Program. […] The stock solutions were prepared in dimethyl sulfoxide (DMSO, Sigma-Aldrich, St. Louis, MO, cat. D2650) at 800-fold the tested concentration and stored at -70 degrees C prior to their use. All drugs and investigational agents were tested over a range starting from a high concentration at or near the clinical Cmax and decreasing in half-log increments. If the clinical Cmax for an agent had not been determined, the highest concentration tested was 10 microM.
Cell Culture. All cells were maintained in an incubator at 37 degrees C and 5% CO2 with 95% humidity. The PDC lines were cultured according to standard operating procedures established by the NCI PDMR (https://pdmr.cancer.gov/sops/default.htm). All PDCs were thawed and cultured in Matrigel-coated flasks prepared with a working solution of 1X Ham's F-12 nutrient mix, without supplementation (Invitrogen, Waltham, MA, cat. 11765054), 100 U/mL penicillin-streptomycin (Invitrogen, cat. 15140122), and 2.5% Matrigel (Corning Inc., Corning, NY, cat. 354248) for the first three passages. The 354836-022-R-J1-PDC, 475296-252-R-J1-PDC, and 997726-040-R-J2-PDC lines were cultured in 6A media, which includes advanced DMEM/F-12 (Thermo Fisher Scientific, cat. 12634028), 10 mM HEPES (Thermo Fisher Scientific, cat. 15630080), 1X GlutaMAX supplement (Thermo Fisher Scientific, cat. 35050061), 0.1 mg/mL primocin (InvivoGen, San Diego, CA, cat. ant-pm-2), 10% defined fetal bovine serum, heat inactivated (HyClone Laboratories Inc., Logan, UT, cat. SH30070.03HI), 50% L-WRN conditioned media (ATCC, cat. CRL-3276), 1.25 mM N-Acetyl-L-cysteine (Sigma-Aldrich, cat. A9165), 10 mM nicotinamide (Sigma-Aldrich, cat. N0636), 1X B-27 supplement (Thermo Fisher Scientific, cat. 17504044), 1X N-2 supplement (Thermo Fisher Scientific, cat. 17502048), and 10 microM Y-27632 dihydrochloride (Tocris Bioscience, Bristol, United Kingdom, cat. 1254). The 624824-186-R-J2-PDC line was cultured in 6C/Colon 1B media, which includes all 6A media components plus 50 ng/mL human EGF recombinant protein (Thermo Fisher Scientific, cat. PHG0311). […]
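Further: spheroids exposed to compounds for seven days before viability read.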
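Wherever viability, T/C is given: luminescence used as a proxy for viable cell amount; percent viability relative to DMSO vehicle control as 100%.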

CC1(C)CCC(CN2CCN(c3ccc(C(=O)NS(=O)(=O)c4ccc(NCC5CCOCC5)c([N+](=O)[O-])c4)c(Oc4cnc5[nH]ccc5c4)c3)CC2)=C(c2ccc(Cl)cc2)C1
viability, T/C (compound 0.1 µM): 103% [middle of 4 runs] | viability, T/C (compound 0.316 µM): 101% [middle of 4 runs] | viability, T/C (compound 1 µM): 111% [middle of 4 runs] | viability, T/C (compound 3.16 µM): 112% [middle of 4 runs] | viability, T/C (compound 10 µM): 59.5% [middle of 4 runs] | IC50 (curve of compound): > 10000 nM and 8800 nM and 8700 nM

Cn1ncnc1[C@H]1c2n[nH]c(=O)c3cc(F)cc(c23)N[C@@H]1c1ccc(F)cc1 + COc1c(OCCCN2CCOCC2)ccc2c3n(c(=NC(=O)c4cnc(N)nc4)nc12)CCN3
IC50 (curve of first compound, second compound 0.00316 µM): > 100 nM | IC50 (curve of first compound, second compound 0.01 µM): > 100 nM | IC50 (curve of first compound, second compound 0.0316 µM): > 100 nM | IC50 (curve of first compound, second compound 0.1 µM): > 100 nM | IC50 (curve of first compound, second compound 0.316 µM): < 0.316 nM | IC50 (curve of first compound, second compound 1 µM): < 0.316 nM | viability, T/C (second compound 0.00316 µM, first compound 0.000316 µM): 110% | viability, T/C (second compound 0.00316 µM, first compound 0.001 µM): 106% | viability, T/C (second compound 0.00316 µM, first compound 0.00316 µM): 102% | viability, T/C (second compound 0.00316 µM, first compound 0.01 µM): 112% | viability, T/C (second compound 0.00316 µM, first compound 0.0316 µM): 103% | viability, T/C (second compound 0.00316 µM, first compound 0.1 µM): 103% | viability, T/C (second compound 0.01 µM, first compound 0.000316 µM): 97.7% | viability, T/C (second compound 0.01 µM, first compound 0.001 µM): 92.6% | viability, T/C (second compound 0.01 µM, first compound 0.00316 µM): 95.3% | viability, T/C (second compound 0.01 µM, first compound 0.01 µM): 100% | viability, T/C (second compound 0.01 µM, first compound 0.0316 µM): 97.3% | viability, T/C (second compound 0.01 µM, first compound 0.1 µM): 100% | viability, T/C (second compound 0.0316 µM, first compound 0.000316 µM): 87.8% | viability, T/C (second compound 0.0316 µM, first compound 0.001 µM): 91.3% | viability, T/C (second compound 0.0316 µM, first compound 0.00316 µM): 80.3% | viability, T/C (second compound 0.0316 µM, first compound 0.01 µM): 79.4% | viability, T/C (second compound 0.0316 µM, first compound 0.0316 µM): 97.7% | viability, T/C (second compound 0.0316 µM, first compound 0.1 µM): 70.8% | viability, T/C (second compound 0.1 µM, first compound 0.000316 µM): 69.4% | viability, T/C (second compound 0.1 µM, first compound 0.001 µM): 68.4% | viability, T/C (second compound 0.1 µM, first compound 0.00316 µM): 67.4% | viability, T/C (second compound 0.1 µM, first compound 0.01 µM): 63.3% | viability, T/C (second compound 0.1 µM, first compound 0.0316 µM): 64.6% | viability, T/C (second compound 0.1 µM, first compound 0.1 µM): 48.6% | viability, T/C (second compound 0.316 µM, first compound 0.000316 µM): 41.8% | viability, T/C (second compound 0.316 µM, first compound 0.001 µM): 39.1% | viability, T/C (second compound 0.316 µM, first compound 0.00316 µM): 46.8% | viability, T/C (second compound 0.316 µM, first compound 0.01 µM): 35.3% | viability, T/C (second compound 0.316 µM, first compound 0.0316 µM): 44.2% | viability, T/C (second compound 0.316 µM, first compound 0.1 µM): 43.8% | viability, T/C (second compound 1 µM, first compound 0.000316 µM): 22.6% | viability, T/C (second compound 1 µM, first compound 0.001 µM): 22.6% | viability, T/C (second compound 1 µM, first compound 0.00316 µM): 23.1% | viability, T/C (second compound 1 µM, first compound 0.01 µM): 18.3% | viability, T/C (second compound 1 µM, first compound 0.0316 µM): 25.7% | viability, T/C (second compound 1 µM, first compound 0.1 µM): 20.8%

CC(=O)c1c(C)c2cnc(Nc3ccc(N4CCNCC4)cn3)nc2n(C2CCCC2)c1=O
viability, T/C (compound 0.000316 µM): 104% [middle of 4 runs] | viability, T/C (compound 0.001 µM): 96.8% [middle of 4 runs] | viability, T/C (compound 0.01 µM): 95.5% [middle of 4 runs] | viability, T/C (compound 0.0316 µM): 96% and 101% (2×) and 91.4% | viability, T/C (compound 0.1 µM): 87.6% [middle of 4 runs] | IC50 (curve of compound): > 100 nM
